From patent US20220125784A1, “METHODS AND COMPOUNDS FOR INHIBITION OF INACTIVATION OF VOLTAGE-GATED SODIUM CHANNELS” (SIMON FRASER UNIVERSITY, priority 2019, published 2022)
“Also recorded” adds a separate entry of the source.

Tests used:
[1] = molecular target: T1, WT Nav1.5-α subunits (Homo sapiens, UniProt Q14524); test: Whole-cell patch clamp, use-dependence (slow inactivation) protocol at 6 Hz in transiently transfected HEK293 cells; format: cell-based; settings: for UDI Block Slope: Hill curve slope; for IC50: Hill curve, use-dependence at 6 Hz, read-out: UDI Block IC50
T1 construct: expressed in transfected cells; host or cells: HEK293 (transient transfection)
Method: (§1) In one set of studies, we used a whole-cell patch clamp technique with single voltage-pulse protocols (FIGS. 3A-B) to characterize compounds ZINC38767171, ZINC39699427, ZINC40014265, ZINC64470729, ZINC64470737 and ZINC64470745. Whole-cell patch clamp was performed in extracellular solution containing (in mM): 140 NaCl, 4 KCl, 2 CaCl2, 1 MgCl2, and 10 HEPES (pH 7.4 adjusted with CsOH). The intracellular pipettes were dipped in dental wax and thermally polished to attain a resistance of 1.0-1.5 MΩ. The intracellular solutions contained (in mM): 130 CsF, 10 NaCl, 10 HEPES, and 10 EGTA titrated to pH 7.4. The six compounds, ZINC38767171, ZINC39699427, ZINC40014265, ZINC64470729, ZINC64470737 and ZINC64470745, chosen for electrophysiology characterization, ordered from MolPort (Easy compound ordering services), were diluted to 10 μM, 50 μM, and 100 μM in extracellular solution for biophysical assessment of channel gating.
(§2) The six compounds were screened against wild type (WT) Nav1.5-α subunits at the optimal physiological temperature of 37° C. Human Embryonic Kidney (HEK293) cells were transfected with WT Nav1.5-α subunits (transient transfections). The α subunits were co-expressed with the β1 subunit and eGFP (enhanced green fluorescence protein) in a 2:1:2 ratio, respectively.
Slow inactivation (SI) was indirectly determined by measuring use-dependence, which is a physiologically-relevant protocol. The protocol includes a series of 500 110 ms depolarizing pulses to 0 mV followed by a 55 ms-90 mV recovery pulse at a frequency 6 Hz. With repetitive depolarizations, Nav1.5 channels accumulate into slow inactivation.

[2] = molecular target: T1, WT Nav1.5-α subunits; test: Whole-cell patch clamp, single voltage-pulse protocol (peak INa, conductance, fast inactivation) in transiently transfected HEK293 cells; format: cell-based; settings: for Peak INa −20 mV: normalized peak INa, 37° C.; for Peak INa Slope: Hill curve slope; for IC50: Hill curve; for IC50 / effect on peak INa: single voltage-pulse protocol; for effect on fast inactivation kinetics: open-state voltages between −30 and +10 mV
Method: as §1, §2
Conductance was measured by a protocol that depolarized the membrane from −100 mV to +80 mV in increments of +5 mV for 19 ms. Prior to the test pulse, channels were allowed to recover from fast inactivation at −130 mV for 197 ms. The tested compounds had no effect on the conductance midpoint (FIGS. 6A-F).
At voltages greater than −50 mV, the fast inactivation T values were calculated from the mono-exponential fit to the decay of sodium current.

T1 sequence (Q14524 whole entry): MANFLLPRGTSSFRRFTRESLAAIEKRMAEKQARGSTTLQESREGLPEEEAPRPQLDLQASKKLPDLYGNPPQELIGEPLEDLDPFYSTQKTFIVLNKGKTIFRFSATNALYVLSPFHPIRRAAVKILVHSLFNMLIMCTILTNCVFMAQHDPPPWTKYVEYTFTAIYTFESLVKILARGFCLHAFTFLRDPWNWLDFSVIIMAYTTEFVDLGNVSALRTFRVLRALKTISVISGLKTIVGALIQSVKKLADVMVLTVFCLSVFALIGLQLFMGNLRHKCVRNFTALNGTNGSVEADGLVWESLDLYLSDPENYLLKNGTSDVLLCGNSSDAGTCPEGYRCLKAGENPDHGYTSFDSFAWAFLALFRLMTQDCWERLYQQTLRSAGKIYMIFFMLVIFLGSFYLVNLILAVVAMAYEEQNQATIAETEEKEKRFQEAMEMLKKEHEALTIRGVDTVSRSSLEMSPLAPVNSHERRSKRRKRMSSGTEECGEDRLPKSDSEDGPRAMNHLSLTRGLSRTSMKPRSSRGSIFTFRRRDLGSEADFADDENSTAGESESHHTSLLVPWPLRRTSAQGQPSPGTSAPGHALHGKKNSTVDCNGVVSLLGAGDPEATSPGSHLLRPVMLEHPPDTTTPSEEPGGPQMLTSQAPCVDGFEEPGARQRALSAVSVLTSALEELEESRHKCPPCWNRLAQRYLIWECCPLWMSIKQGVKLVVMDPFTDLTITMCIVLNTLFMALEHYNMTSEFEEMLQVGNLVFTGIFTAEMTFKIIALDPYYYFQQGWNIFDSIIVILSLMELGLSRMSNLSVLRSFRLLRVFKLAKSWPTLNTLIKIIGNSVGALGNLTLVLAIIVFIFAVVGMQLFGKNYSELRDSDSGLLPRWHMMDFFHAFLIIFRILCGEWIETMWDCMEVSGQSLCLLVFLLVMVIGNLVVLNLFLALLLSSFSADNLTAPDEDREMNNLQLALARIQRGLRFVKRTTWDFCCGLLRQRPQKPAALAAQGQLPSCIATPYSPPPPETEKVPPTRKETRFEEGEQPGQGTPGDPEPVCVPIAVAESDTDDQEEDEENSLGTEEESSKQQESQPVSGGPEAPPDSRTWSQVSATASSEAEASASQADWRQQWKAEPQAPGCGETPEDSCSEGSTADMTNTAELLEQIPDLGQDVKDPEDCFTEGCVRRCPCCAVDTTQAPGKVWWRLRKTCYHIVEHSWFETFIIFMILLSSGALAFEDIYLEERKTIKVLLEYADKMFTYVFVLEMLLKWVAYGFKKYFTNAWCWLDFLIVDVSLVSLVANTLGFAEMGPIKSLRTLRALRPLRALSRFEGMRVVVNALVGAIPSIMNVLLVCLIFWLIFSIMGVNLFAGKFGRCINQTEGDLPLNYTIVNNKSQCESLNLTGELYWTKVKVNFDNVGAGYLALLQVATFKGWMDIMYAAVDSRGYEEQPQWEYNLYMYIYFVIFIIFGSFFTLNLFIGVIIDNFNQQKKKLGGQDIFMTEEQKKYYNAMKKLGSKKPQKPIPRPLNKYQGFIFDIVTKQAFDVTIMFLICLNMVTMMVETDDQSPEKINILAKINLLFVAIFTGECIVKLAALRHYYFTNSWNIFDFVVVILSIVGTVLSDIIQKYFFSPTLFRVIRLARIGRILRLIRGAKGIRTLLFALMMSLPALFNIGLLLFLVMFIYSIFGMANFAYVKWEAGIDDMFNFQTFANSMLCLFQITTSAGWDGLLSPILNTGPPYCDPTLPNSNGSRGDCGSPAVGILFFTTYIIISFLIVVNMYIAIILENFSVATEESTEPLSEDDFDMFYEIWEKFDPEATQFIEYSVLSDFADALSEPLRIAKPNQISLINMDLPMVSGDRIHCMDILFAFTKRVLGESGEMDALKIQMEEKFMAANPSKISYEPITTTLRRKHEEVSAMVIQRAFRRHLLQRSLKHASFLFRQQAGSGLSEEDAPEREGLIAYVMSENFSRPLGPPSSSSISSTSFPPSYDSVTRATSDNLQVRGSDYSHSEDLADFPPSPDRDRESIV

Compound | UDI Block Slope [1] | IC50 [1] [µM] | % Block −20 mV ([2]; 10 μM) [%] | fast inactivation onset time constant FI +10 mV ([2]; 10 μM) [ms] | fast inactivation onset time constant FI −10 mV ([2]; 10 μM) [ms] | fast inactivation onset time constant FI −30 mV ([2]; 10 μM) [ms] | fast inactivation onset time constant FI −50 mV ([2]; 10 μM) [ms] | Peak INa −20 mV ([2]; 10 μM) | % Block −20 mV ([2]; 50 μM) [%] | fast inactivation onset time constant FI +10 mV ([2]; 50 μM) [ms] | fast inactivation onset time constant FI −10 mV ([2]; 50 μM) [ms] | fast inactivation onset time constant FI −30 mV ([2]; 50 μM) [ms] | fast inactivation onset time constant FI −50 mV ([2]; 50 μM) [ms] | Peak INa −20 mV ([2]; 50 μM) | % Block −20 mV ([2]; 100 μM) [%] | fast inactivation onset time constant FI +10 mV ([2]; 100 μM) [ms] | fast inactivation onset time constant FI −10 mV ([2]; 100 μM) [ms] | fast inactivation onset time constant FI −30 mV ([2]; 100 μM) [ms] | fast inactivation onset time constant FI −50 mV ([2]; 100 μM) [ms] | Peak INa −20 mV ([2]; 100 μM) | also measured
COc1cccc(NS(=O)(=O)c2ccc3c(c2)=NC(=O)N=3)c1 [ZINC64470729, N-(3-methoxyphenyl)-2-oxo-benzimidazole-5-sulfonamide] | −0.194 | 40.7 | −22.68 | 0.26 ± 0.04 | 0.40 ± 0.08 | 0.70 ± 0.14 | 1.67 ± 0.21 | −0.75 ± 0.05 | −25.77 | 0.26 ± 0.02 | 0.40 ± 0.03 | 0.75 ± 0.07 | 1.97 ± 0.29 | −0.72 ± 0.06 | −38.14 | 0.23 ± 0.03 | 0.39 ± 0.02 | 0.76 ± 0.09 | 1.71 ± 0.22 | −0.60 ± 0.26 | Peak INa Slope [2]: 0.389; IC50 [2]: 34.6 µM; effect on fast inactivation kinetics [2]: significantly decelerated
CCc1ccccc1NS(=O)(=O)c1ccc2c(c1)=NC(=O)N=2 [ZINC64470737, N-(2-ethylphenyl)-2-oxo-benzimidazole-5-sulfonamide] | 0.710 | 95.1 | −22.45 | 0.31 ± 0.06 | 0.41 ± 0.07 | 0.66 ± 0.09 | 1.37 ± 0.31 | −0.76 ± 0.13 | −40.82 | 0.39 ± 0.02 | 0.64 ± 0.08 | 1.02 ± 0.13 | 1.88 ± 0.27 | −0.58 ± 0.10 | −74.49 | 0.49 ± 0.00 | 0.66 ± 0.00 | 0.96 ± 0.00 | 1.82 ± 0.00 | −0.25 ± 0.00 | Peak INa Slope [2]: 14.37; IC50 [2]: 9.86 µM; effect on fast inactivation kinetics [2]: significantly decelerated; also recorded: decelerates fast inactivation kinetics the most
Cc1cc(F)ccc1NS(=O)(=O)c1ccc2c(c1)=NC(=O)N=2 [ZINC64470745, N-(4-fluoro-2-methyl-phenyl)-2-oxo-benzimidazole-5-sulfonamide] | 0.289 | 901 | −23.71 | 0.27 ± 0.03 | 0.37 ± 0.03 | 0.66 ± 0.04 | 2.12 ± 0.34 | −0.74 ± 0.06 | −12.37 | 0.25 ± 0.02 | 0.37 ± 0.03 | 0.63 ± 0.05 | 1.75 ± 0.34 | −0.85 ± 0.08 | −24.74 | 0.28 ± 0.04 | 0.45 ± 0.07 | 0.81 ± 0.12 | 1.79 ± 0.20 | −0.73 ± 0.04 | Peak INa Slope [2]: 16.06; IC50 [2]: 0.928 µM; plateau of drug block on sodium current ([2]; attained at concentrations above 10 μM): −20%; effect on fast inactivation kinetics [2]: significantly decelerated; effect on peak INa [2]: blocked peak INa the least; also recorded: does not reduce peak Na at concentrations above 10 μM
C=CCNS(=O)(=O)c1ccc2c(c1)=NC(=O)N=2 [ZINC39699427, N-allyl-2-oxo-benzimidazole-5-sulfonamide] | 4.556 | 0.196 | −34.00 | 0.21 ± 0.03 | 0.31 ± 0.04 | 0.54 ± 0.09 | 1.32 ± 0.24 | −0.66 ± 0.04 | −42.00 | 0.25 ± 0.03 | 0.35 ± 0.04 | 0.63 ± 0.08 | 1.46 ± 0.09 | −0.58 ± 0.06 | −47.00 | 0.26 ± 0.02 | 0.40 ± 0.03 | 0.72 ± 0.04 | 1.61 ± 0.18 | −0.53 ± 0.07 | effect on use-dependence ([1]; 6 Hz): significantly increases; Peak INa Slope [2]: 0.236; IC50 [2]: 6.45 µM; effect on peak INa [2]: considerably blocked peak INa at low concentrations
O=C1N=c2ccc(C(=O)NCc3ccco3)cc2=NC1=O [ZINC38767171, N-(2-furylmethyl)-2,3-dioxo-quinoxaline-6-carboxamide] | 3.161 | 0.251 | −24.21 | 0.25 ± 0.05 | 0.39 ± 0.06 | 0.71 ± 0.12 | 1.70 ± 0.33 | −0.72 ± 0.06 | −37.89 | 0.34 ± 0.06 | 0.58 ± 0.08 | 0.94 ± 0.10 | 1.79 ± 0.15 | −0.59 ± 0.11 | −38.95 | 0.41 ± 0.11 | 0.60 ± 0.13 | 1.05 ± 0.21 | 1.92 ± 0.38 | −0.58 ± 0.10 | Peak INa Slope [2]: 1.697; IC50 [2]: 7.61 µM; effect on fast inactivation kinetics [2]: significantly decelerated; also recorded: decelerate fast inactivation kinetics, but not significantly
